Measured values published in patent US4265901A, “2-Oxybenzimidazoline compounds” (priority 1979, dated 1981).
Where a name gives a salt, the structure may show the parent alone.

What was measured:
Rice = assay: Pre-emergence herbicide test, rice; format: in vivo
Protocol: (§1) In this evaluation, each compound to be tested was dissolved in a 1:1 mixture of acetone and ethanol containing a small amount of Toximul R and Toximul S (each a sulfonate/nonionic blend produced by Stepan Chemical Company, Northfield, Illinois). The solution was then diluted with deionized water to a composition of the following concentrations, by weight: Plant species used as indicators of herbicidal activity were planted in galvanized pans (flats) 31.5 cm. long, 21.5 cm. wide, and 8.0 cm. deep. The bottoms of the flats had holes to facilitate drainage. The soil used was a 1:1 ratio by volume of masonry sand and shredded top soil. Flats that were to receive preemergence treatments were planted one day prior to, or on the same day treatments were applied. Flats that were to receive postemergence treatments were planted 9 days prior to treatment and placed in a growth chamber until the day of treatment. In the growth chamber, flats received 12 to 18 hours of light per day and were subject to temperatures of 75° to 85° F. The formulated test compound was applied uniformly to the indicator species with a modified DeVilbiss atomizer using air pressure of 3 to 5 psi. Each flat received 12.5 ml. of spray solution which was equal to 200 gallons/acre total spray volume. Plants were maintained in a greenhouse after treatment. Herbicidal effects of chemicals were evaluated by two injury rating systems 18 days after preemergence applications and 14 days after postemergence applications. The degree of plant injury was based on a 1 to 5 scale and a single numerical rating was assigned to each test species as follows: […]

blowfly larvae = assay: Efficacy against blowfly larvae, calves intravenous injection (Example 17); format: in vivo, Phormia regina; details: daily i.v. 0.5 to 1.5 mg/kg escalating, day per line
Protocol: Representative compounds of the present invention were evaluated against larvae of blowfly (Phormia regina) and against adult housefly (Musca domestica). In these evaluations, the candidate compound was administered to each of two male guinea pigs weighing from about 400 grams to about 1000 grams. Administration was via the intraperitoneal route, the compound having been formulated in sesame oil. At twenty-four hours following administration of the compound, blood was withdrawn from the guinea pigs. The serum portion was isolated and blowfly larvae and adult houseflies were fed on the serum. For the blowfly assay, 10 ml. of serum were placed in a test tube with a wick onto which 50 blowfly larvae were placed. The covered test tube was incubated at 27° C. for 24 hours, at which time efficacy of the candidate compound was determined as the percent mortality of the blowfly larvae, adjusted by normal mortality in a control, and reported according to the following rating scale:
A group of three calves each weighing about 220 kilograms was employed. […]
On each day of the evaluation, immediately preceding that day's injection, a sample of blood was withdrawn from each calf. The concentration of the compound in the blood was determined; and the efficacy of the compound against adult housefly and blowfly larvae was assayed by the method described in Example 15. […]

Wheat = assay: Pre-emergence herbicide test, wheat; format: in vivo
Protocol: as §1

Cucumber = assay: Pre-emergence herbicide test, cucumber; format: in vivo
Protocol: as §1

Jimsonweed = assay: Pre-emergence herbicide test, jimsonweed; format: in vivo
Protocol: as §1

Alfalfa = assay: Pre-emergence herbicide test, alfalfa; format: in vivo
Protocol: as §1

housefly = assay: House fly contact test; for all read-outs here: ranges in brackets are in %; format: in vivo, Musca domestica; details: 1000 ppm; for Housefly Kd. (knockdown rating): 2 hours; for Housefly Cont. (mortality rating): 24 hours
Protocol: In this evaluation, each compound to be tested was dissolved in a 1:1 mixture of acetone and ethanol containing a small amount of Toximul R and Toximul S (each a sulfonate/nonionic blend produced by Stephan Chemical Company, Northfield, Ill.). The solution was then diluted with distilled water to a concentration of 1000 ppm of test compound. Lesser concentration formulations were made by diluting a portion of the 1000 ppm solution with distilled water containing 225 mg. of Toximul R and 125 mg. of Toximul S per liter.
This test was conducted with 4-day-old adults of Musca domestica (Linne), Order Diptera, Family Muscidae.
Rearing cages of 4-day-old adult house flies were placed in a cold room and held for one hour at 35° to 40° F. to chill so that the flies could be transferred to test cages. Approximately 100 flies were transferred to each test cage using a small scoop. The stainless steel test cages were five inches in diameter and one and three-fourths inches deep with a stainless steel screen bottom and screened removable friction fitting lid. The small hole on the side of the cage was kept stoppered except when a wick was inserted for feeding and watering.
Each cage was sprayed with 5 ml. of the test formulation containing 1000 ppm. of the test compound, using a DeVilbiss atomizer supplied with 5 psi air pressure. The nozzle was 33 inches from the top of the cage. After spraying, cages were allowed to dry.
Knockdown counts were made two hours after spraying and then the flies were fed and watered by inserting a four-inch wick of Fibre Flex Supreme, unbleached (16/32"), (manufactured by Sackner Products, Inc., Grand Rapids, Mich.) in the hole on the side of the cage. The cage was placed so that the wick hung down into a pan of five percent sugar solution in water.
One replicate was run for each test compound. One unsprayed cage was held as a control, one cage was sprayed as a negative control, and one cage was sprayed with a formulation containing 50 ppm. (0.005%) DDT as a reference standard.
Mortality counts were made 24 hours after spraying. The cage was rapped lightly. […] Moribund flies were counted as dead.

Barnyard Grass = assay: Pre-emergence herbicide test, barnyard grass; format: in vivo
Protocol: as §1

SMILES | plant injury rating (Rice; 1/2 lb/A) | plant injury rating (Rice; 1 lb/A) | plant injury rating (Rice; 2 lb/A) | plant injury rating (Wheat; 1/2 lb/A) | plant injury rating (Wheat; 1 lb/A) | plant injury rating (Wheat; 2 lb/A) | plant injury rating (Cucumber; 1/2 lb/A) | plant injury rating (Cucumber; 1 lb/A) | plant injury rating (Cucumber; 2 lb/A) | plant injury rating (Jimsonweed; 1/2 lb/A) | plant injury rating (Jimsonweed; 1 lb/A) | plant injury rating (Jimsonweed; 2 lb/A) | plant injury rating (Alfalfa; 1/2 lb/A) | plant injury rating (Alfalfa; 2 lb/A) | Housefly Kd. (knockdown rating) (housefly) | Housefly Cont. (mortality rating) (housefly) | plant injury rating (Barnyard Grass; 1/2 lb/A) | plant injury rating (Barnyard Grass; 2 lb/A) | also measured
O=[N+]([O-])c1cc(C(F)(F)F)cc2c1NC(O)(C(F)(F)C(F)F)N2 (stereo not shown) [Example 2, 2-Hydroxy-2-(1,1,2,2-Tetrafluoroethyl)-4-Nitro-6-(Trifluoromethyl)Benzimidazoline, Sodium Salt, and Hydrate] | 1 (no injury) | 1 (no injury) | 2S | 1 (no injury) | 1 (no injury) | 1 (no injury) | 1 (no injury) | 1 (no injury) | 1 (no injury) | 1 (no injury) | 1 (no injury) | 3BS | 3SR | 5D | 1 (1-50) | 3 (100) | 1 (no injury) | 1 (no injury) | plant injury rating (Rice; 1/4 lb/A): 1 (no injury); plant injury rating (Rice; 4 lb/A): 2SB; % Efficacy, Blowfly Larvae (blowfly larvae; calf 986): 100%; % Efficacy, Blowfly Larvae (blowfly larvae; calf 991): 100%; plant injury rating (Wheat; 1/4 lb/A): 1 (no injury); plant injury rating (Wheat; 4 lb/A): 3BS; plant injury rating (Cucumber; 1/4 lb/A): 1 (no injury); plant injury rating (Cucumber; 4 lb/A): 4BS; plant injury rating (Jimsonweed; 1/4 lb/A): 1 (no injury); plant injury rating (Jimsonweed; 4 lb/A): 5D; plant injury rating (Alfalfa; 1/4 lb/A): 1 (no injury); plant injury rating (Alfalfa; 4 lb/A): 5N; plant injury rating (Barnyard Grass; 1/4 lb/A): 1 (no injury); plant injury rating (Barnyard Grass; 4 lb/A): 2BS
O=[N+]([O-])c1cc(C(F)(F)F)cc2c1NC(O)(C(F)(F)C(F)F)N2O (stereo not shown) [Example 12, 1,2-Dihydroxy-2-(1,1,2,2-Tetrafluoroethyl)-4-Nitro-6-(Trifluoromethyl)Benzimidazoline] | 1 (no injury) | 1 (no injury) | 1 (no injury) | 1 (no injury) | 1 (no injury) | 1 (no injury) | 1 (no injury) | 1 (no injury) | 1 (no injury) | 1 (no injury) | 1 (no injury) | 1 (no injury) | 1 (no injury) | 3SB | 0 (0) | 2 (51-99) | 1 (no injury) | 1 (no injury) | plant injury rating (Alfalfa; 1 lb/A): 1 (no injury); plant injury rating (Barnyard Grass; 1 lb/A): 1 (no injury)
